According to patent US6900200B2, “Tricyclic hydroxy carboxamides and derivatives thereof tocolytic oxytocin receptor antagonists” (Wyeth, priority 2001, dated 2005):

Biological target: T1, human vasopressin V1a receptor subtype (Homo sapiens, UniProt P37288)
T1 construct: host or cells: CHO cells; pZeoSV vector for the Thibonnier line
Test: Vasopressin binding in CHO cell membranes expressing human vasopressin V1a subtype receptors ([3H]Manning ligand radioligand binding)
Conditions: for IC50: value printed in parentheses
Excerpt: Vasopressin Binding in Chinese Hamster Ovary Cell Membranes Expressing Human Vasopressin V1a Subtype Receptors
Chinese hamster ovary cells (CHO cells) stably transfected with the human vasopressin V1a subtype receptors were either obtained from BioSignal Inc., 1744 rue Williams, Montreal, Quebec, Canada or obtained from M. Thibonnier, Case Western Reserve University School of Medicine, Cleveland, Ohio.
A. Passaging and Amplification of Cells
CHO cells transfected with the human vasopressin V1a subtype receptors obtained from M. Thibonnier (pZeoSV vector) are allowed to grow to confluency (approx. >90%) in T-150 flasks under sterile conditions, in a cell culture medium of F-12 Nutrient Mixture (HAM) with L-glutamine (Gibco Cat. #11765-054) containing 15 mM HEPES (Gibco Cat. #15630-080), 1% antibiotic/antimycotic (add 5 mL 100×, Gibco Cat. #15240-062 per 500 mL F-12), 250 μg/mL Zeocin (add 1.25 mL of 100 mg/mL Invitrogen R-250-01 per 500 mL F-12) and 10% Fetal Bovine Serum (Qualified, heat inactivated, Gibco Cat. #16140-063). The medium is removed by aspiration and the cells are washed with 10 mL of Hank's Balanced Salt solution (Gibco Cat. #14175-095). The salt solution is removed by aspiration and the cells are trypsinized with 5 mL of trypsin-EDTA (0.05% trypsin, 0.53 mM EDTA-4Na, Gibco Cat. #25300-070) for 1 min. The trypsin is removed by aspiration and the cells dislodged by tapping. Cell Culture medium (e.g. 30 mL for 1:30 split) is immediately added and mixed well to inactivate trypsin. 1 mL of detached cells is added to new culture flasks containing fresh cell culture medium (e.g., into 25 mL per T-150 flask), and mixed gently. The cells are incubated at 37° C. in 5% CO2. The medium is changed at 3 to 4 days interval (or as appropriate). The cells grow to confluency (approx. >75%-95%) within 7-8 days. All steps are done under sterile conditions.
The cells are washed twice gently with Hank's Balanced Salt solution (e.g,. use 10 mL per T-150 flask). The excess is removed and the cells are bathed for 15-30 min. in an enzyme-free Cell Dissociation Buffer (e.g. use 8 mL Hank's Based, Gibco Cat. #13150-016 per T-150 flask) until the cells are loosened. The contents are transferred to centrifuge tubes (50 mL) kept in an ice bath. All subsequent steps are done at 4° C. The tubes are centrifuged at 300×g for 15 min (1380 rpm on SORVAL, Model RT6000D, using the rotor for 50 mL tubes). The supernatant is discarded and the cells suspended in homogenizing buffer(10 mM Tris-HCl containing 0.25 M sucrose and 1 mM EDTA, pH 7.4) ensuring that the volume of the buffer is about ten times the volume of the cell pellet. The cells are pooled into a centrifuge tube (50 mL) and homogenized with Polytron at setting 6 for 10 sec. The homogenate is transferred into a Potter-Elvjehm homogenizer and homogenized with 3 strokes. The homogenate is centrifuged at 1500×g for 10 min at 4° C. (3100 rpm using SORVAL, model RT6000D, using the rotor for 50 mL tubes). The pellet is discarded. The supernatant is centrifuged at 100,000×g for 60 min. at 4° C. (Beckman L8-80M ultracentrifuge; spin at 37,500 rpm with rotor type 70 Ti for 50 mL tubes; 38,000 rpm with type 80Ti for 15 mL tubes; or 35,800 rpm with rotor type 45Ti). The supernantant is discarded and the pellet suspended in 3 to 4 mL of Tris buffer (50 mM TRIS—HCl, pH 7.4). The protein content is estimated by the Bradford or Lowry method. The volume of the membrane suspension is adjusted with the membrane buffer (50 mM Tris-HCl containing 0.1% BSA and 0.1 mM PMSF) to give 3.0 mg/mL (or as appropriate) of protein. The membranes are aliquoted and stored at −70° C.
C. Radioligand Binding Assay […]

T1 sequence (P37288 whole entry): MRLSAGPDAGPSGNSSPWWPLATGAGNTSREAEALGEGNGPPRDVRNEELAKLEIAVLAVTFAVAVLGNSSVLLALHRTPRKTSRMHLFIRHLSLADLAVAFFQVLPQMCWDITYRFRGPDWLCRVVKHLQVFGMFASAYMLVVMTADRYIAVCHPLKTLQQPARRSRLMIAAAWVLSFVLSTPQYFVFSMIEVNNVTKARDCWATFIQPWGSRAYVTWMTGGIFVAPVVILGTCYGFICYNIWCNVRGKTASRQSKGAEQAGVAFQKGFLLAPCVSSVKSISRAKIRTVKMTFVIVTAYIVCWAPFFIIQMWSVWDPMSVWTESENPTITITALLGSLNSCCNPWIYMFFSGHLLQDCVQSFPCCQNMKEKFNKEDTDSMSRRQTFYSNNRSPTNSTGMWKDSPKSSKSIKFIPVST

| inhibition at 0.1 µM (@ 100 nM) [%] | IC50 [nM] | Compound |
| --- | --- | --- |
| 57 | – | Cc1ccccc1-c1ccc(C(=O)N2Cc3ccc(C(=O)N4CCN(CCO)CC4)n3Cc3ccccc32)cc1 [Example 45, [4-(2-Hydroxyethyl)-1-piperazinyl]{10-[(2′-methyl[1,1′-biphenyl]-4-yl)carbonyl]-10,11-dihydro-5H-pyrrolo[2,1-c][1,4]benzodiazepin-3-yl}methanone] |
| – | 1970 | COC[C@H](O)CN1CCN(C(=O)c2ccc3n2Cc2ccccc2N(C(=O)c2ccc(-c4ccccc4C(F)(F)F)c(C)c2)C3)CC1 [Example 8, (2R)-1-Methoxy-3-{4-[(10-{[2-methyl-2′-trifluoromethyl-[1,1′-biphenyl]-4-yl]carbonyl}-10,11-dihydro-5H-pyrrolo[2,1-c][1,4]benzodiazepin-3-yl)carbonyl]piperazin-1-yl}propan-2-ol] |
| – | 759 | COc1cc(-c2ccccc2C)c(Cl)cc1C(=O)N1Cc2ccc(C(=O)N3CCN(CCO)CC3)n2Cc2ccccc21 [Example 39, {10-[(6-Chloro-3-methoxy-2′-methyl[1,1′-biphenyl]-4-yl)carbonyl]-10,11-dihydro-5H-pyrrolo[2,1-c][1,4]benzodiazepin-3-yl}[4-(2-hydroxyethyl)-1-piperazinyl]methanone] |
| – | 790 | Cc1cc(C(=O)N2Cc3ccc(C(=O)N(C)CC(O)CO)n3Cc3ccccc32)ccc1-c1ccccc1C(F)(F)F (stereo not shown) [Example 2, 10-[(2-Methyl-2′-trifluoromethyl-[1,1′-biphenyl]-4-yl)carbonyl]-10,11-dihydro-5H-pyrrolo[2,1-c][1,4]benzodiazepine-3-carboxylic acid (2,3-dihydroxy-propyl)-methyl-amide] |
